The values below come from ChEMBL document CHEMBL5241112, “Insights into the recent progress in the medicinal chemistry of pyranopyrimidine analogs” (RSC Med Chem, 2022).

One may read the CC50 as the concentration that lowers cell viability or growth by half. The EC50 is the concentration needed to bring the measured effect to its halfway point. The term MBC denotes the lowest tested concentration that kills the bacteria rather than only halting them. In general, MIC refers to the lowest concentration found to suppress growth. In general, IC50 refers to the concentration needed to halve the response being measured. One may read the inhibition as the relative decrease from the control value, in per cent.

Data set [1] is described as follows: Cytotoxicity against human MT4 cells assessed as reduction in cell viability by MTT assay. It counts as toxicity, cell-based.
Data set [2] can be described thus: Selectivity index, ratio of CC50 for cytotoxicity against human MT4 cells to EC50 for antiviral activity against HIV1 IIIB infected in human MT4 cells. It counts as toxicity, cell-based. The following applies: read-out: Selectivity Index.
For data set [3], the system named is Human immunodeficiency virus 1. As to the kind of experiment: Antiviral activity against HIV1 IIIB infected in human MT4 cells assessed as reduction in virus-induced cytopathic effect by MTT assay. It counts as functional, organism-based. The following applies: Human immunodeficiency virus 1, IIIB. On the technique in general: Cytopathic effects are the visible damage that an infection or toxin causes in cultured cells.

Data set [4] can be described thus: Selectivity index, ratio of CC50 for cytotoxicity against human MT4 cells to EC50 for antiviral activity against HIV2 ROD infected in human MT4 cells. Type of data set: toxicity, cell-based. The following applies: read-out: Selectivity Index.
The test system of data set [5] is Human immunodeficiency virus 2. As to the kind of experiment: Antiviral activity against HIV2 ROD infected in human MT4 cells assessed as reduction in virus-induced cytopathic effect by MTT assay. Conditions: Human immunodeficiency virus 2, ROD. Type of data set: functional, organism-based.
For data set [6], the system named is Bacillus subtilis. In words: Antibacterial activity against Bacillus subtilis MTCC 121 assessed as minimum bactericidal concentration. It counts as functional.
The subject of another data set is Escherichia coli. In words: Antibacterial activity against Escherichia coli MTCC 739 assessed as bacterial growth inhibition. It counts as functional.
Data set [7] concerns Staphylococcus aureus. In words: Antibacterial activity against Staphylococcus aureus MLS-16 MTCC 2940 assessed as bacterial growth inhibition. Type of data set: functional.
A further data set has as its system Pseudomonas aeruginosa. In words: Antibacterial activity against Pseudomonas aeruginosa MTCC 2453 assessed as bacterial growth inhibition. It counts as functional.
A further data set deals with Raoultella planticola. As to the kind of experiment: Antibacterial activity against Raoultella planticola MTCC 530 assessed as bacterial growth inhibition. Conditions: Klebsiella planticola. It counts as functional.
For data set [8], the system named is Bacillus subtilis. In words: Antibacterial activity against Bacillus subtilis MTCC 121 assessed as bacterial growth inhibition. Type of data set: functional.
Data set [9] concerns Staphylococcus aureus. As to the kind of experiment: Antibacterial activity against Staphylococcus aureus MLS-16 MTCC 2940 assessed as minimum bactericidal concentration. Type of data set: functional.
The subject of another data set is Micrococcus luteus. In words: Antibacterial activity against Micrococcus luteus MTCC 2470 assessed as bacterial growth inhibition. It counts as functional.
Data set [10] has as its system Staphylococcus aureus. As to the kind of experiment: Antibacterial activity against Staphylococcus aureus MTCC 96 assessed as minimum bactericidal concentration. Type of data set: functional.
For data set [11], the target named is Polyunsaturated fatty acid 5-lipoxygenase (Homo sapiens, UniProt P09917). As to the kind of experiment: Inhibition of 5-LOX (unknown origin) by colorimetric analysis.
The next data set can be described thus: cells. Conditions: Homo sapiens, Macrophage.
In another data set the test system is HT-29. In words: Antiproliferative activity against human HT-29 cells assessed as reduction in cell viability by MTT assay. It counts as functional, cell-based. In general terms: Formazan colour is commonly taken as a measure of viable cells.
The test system of a further data set is PANC-1. In words: Antiproliferative activity against human PANC-1 cells assessed as reduction in cell viability by MTT assay. Type of data set: functional, cell-based.
A further data set relates to MDA-MB-231. In words: cells. Conditions: Homo sapiens.
The target of data set [12] is Alpha-glucosidase (Mus musculus). In words: Inhibition of mouse alpha-glucosidase assessed as decrease in release of p-nitrophenol using pNPG as substrate preincubated for 10 mins followed by substrate addition and measured after 30 mins by spectroscopic analysis.
In a further data set the target is Alpha-glucosidase (Saccharomyces cerevisiae S288c, UniProt P53341+P38158+P07265). As to the kind of experiment: Inhibition of Saccharomyces cerevisiae alpha-glucosidase assessed as decrease in release of p-nitrophenol using pNPG as substrate incubated for 10 mins by spectroscopic analysis. It counts as protein assay.
A short description of data set [13]: Cytotoxicity against human HDF cells assessed as reduction in cell viability by MTT assay. Conditions: HDF cells (NHDF cell line). It counts as toxicity, cell-based.
Data set [14] is filed under the species Capra hircus. In words: Inhibition of goat lens AR assessed as gibbs binding free energy.
A short description of data set [15]: Antioxidant activity assessed as DPPH radical scavenging activity incubated for 20 mins by spectrophotometric analysis. Details: concentration or dose not given beside the values. It counts as functional. (In general: DPPH is a stable violet radical that fades when it is reduced.)
The species entered for data set [16] is Capra hircus. As to the kind of experiment: Inhibition of goat lens AR at 100 uM incubated for 10 mins in presence of NADPH by spectroscopic analysis.
Data set [17] can be described thus: Antioxidant activity assessed as hydroxyl radical scavenging activity incubated for 5 mins by spectrophotometric analysis. Set-up: concentration or dose not given beside the values. It counts as functional.
Data set [18] in a line: Antioxidant activity assessed as trolox equivalent of ABTS radical scavenging activity and measured after 6 mins by UV-vis spectrophotometry. It counts as functional.

SMILES strings stand for the structures. ≈ marks a conversion by molar mass, not a printed value. Bounds are passed on as bounds.

Polyunsaturated fatty acid 5-lipoxygenase, sequence (P09917 whole entry): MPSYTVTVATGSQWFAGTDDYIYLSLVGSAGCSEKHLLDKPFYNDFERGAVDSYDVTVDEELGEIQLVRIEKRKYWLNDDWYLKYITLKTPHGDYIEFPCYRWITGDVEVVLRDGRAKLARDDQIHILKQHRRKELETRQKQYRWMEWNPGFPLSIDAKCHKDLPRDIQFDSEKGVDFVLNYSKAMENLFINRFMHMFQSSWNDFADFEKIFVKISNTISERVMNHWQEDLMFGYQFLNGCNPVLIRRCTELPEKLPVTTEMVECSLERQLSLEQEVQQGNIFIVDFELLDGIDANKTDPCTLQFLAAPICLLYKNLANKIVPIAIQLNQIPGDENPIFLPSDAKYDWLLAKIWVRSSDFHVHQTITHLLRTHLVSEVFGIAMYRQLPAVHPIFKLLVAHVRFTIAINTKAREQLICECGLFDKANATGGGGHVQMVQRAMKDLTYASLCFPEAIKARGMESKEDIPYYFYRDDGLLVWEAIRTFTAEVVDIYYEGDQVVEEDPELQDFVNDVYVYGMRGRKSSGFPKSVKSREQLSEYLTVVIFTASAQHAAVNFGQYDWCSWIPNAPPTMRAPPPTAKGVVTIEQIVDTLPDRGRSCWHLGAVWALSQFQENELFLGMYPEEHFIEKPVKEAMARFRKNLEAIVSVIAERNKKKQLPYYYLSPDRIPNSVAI

For `Cc1nc2c(c(=O)[nH]1)C(c1cccc3ccccc13)c1c(c3ccccc3oc1=O)O2` (centres undefined), the CC50 in data set [1] is 3.63 mg/L (≈ 8.89 µM). Besides, the selectivity ratio in data set [2] and in data set [4] was under 1 throughout. Moreover, the EC50 in data set [3] and in [5] was 3.63 mg/L (≈ 8.89 µM) throughout.
As to `Cc1ccc(C2c3c(Nc4cccc([N+](=O)[O-])c4)ncnc3Oc3c2c(=O)oc2ccccc32)cc1` (centres undefined), the MBC with Bacillus subtilis [6], in the data set with Staphylococcus aureus [9] and in the data set with Staphylococcus aureus [10] was 15.6 mg/L (≈ 32.6 µM) each time. Moreover, the MIC amounted to 15.6 mg/L (≈ 32.6 µM) with Escherichia coli; 15.6 mg/L (≈ 32.6 µM) in the data set on Staphylococcus aureus [7]; 15.6 mg/L (≈ 32.6 µM) in the data set with Pseudomonas aeruginosa; 15.6 mg/L (≈ 32.6 µM) with Raoultella planticola; 31.2 mg/L (≈ 65.2 µM) in the data set on Bacillus subtilis [8]; 15.6 mg/L (≈ 32.6 µM) with Micrococcus luteus.
For the compound `N=c1c2c(ncn1-c1ccccc1)Oc1[nH]c(=S)[nH]c(=O)c1C2c1ccc(Cl)cc1` (centres undefined), the half-inhibitory concentration (IC50) in data set [11] stood at 1.93 µM; in the data set “cells”, 3.5 µM.
As for `Cc1ccc(C2c3c(Nc4ccc([N+](=O)[O-])cc4)ncnc3Oc3c2c(=O)oc2ccccc32)cc1` (centres undefined), the MBC with Bacillus subtilis [6], in the data set on Staphylococcus aureus [9] and in the data set on Staphylococcus aureus [10] was 15.6 mg/L (≈ 32.6 µM) in each case. The MIC in the data set with Escherichia coli, in the data set on Staphylococcus aureus [7], with Pseudomonas aeruginosa, in the data set with Raoultella planticola, in the data set on Bacillus subtilis [8] and with Micrococcus luteus was 15.6 mg/L (≈ 32.6 µM) each time.
In the case of `N#CC1=C(NC[C@]2(O)O[C@H](O)[C@@H](O)[C@@H](O)[C@H]2O)Oc2[nH]c(=S)[nH]c(=O)c2C1c1ccc(Cl)cc1` (some centres undefined), the results for the IC50 (in data set [11]; in the data set “cells”) were 1.66 µM and 3.23 µM, respectively.
With `COc1cc([C@@H]2c3cc4c(cc3[C@@H](O[C@@H]3O[C@@H]5CO[C@@H](C)O[C@H]5[C@H](O)[C@H]3O)[C@H]3COC(=O)[C@H]23)OCO4)cc(OC)c1O` [ETOPOSIDE], the IC50 was 25.6 µM in the data set with HT-29, 24.4 µM in the data set on PANC-1 and 30.6 µM in the data set with MDA-MB-231.
In the case of `COc1cc(/C=C/C(=O)C2=C(/C=C/c3ccc(O)c(OC)c3)Oc3[nH]c(=O)[nH]c(=O)c3C2c2ccc([N+](=O)[O-])cc2)ccc1O` (centres undefined), the IC50 in [12] came out at 106.8 µM; at Alpha-glucosidase, 12.41 µM.
For `N#CC1=C(N)Oc2[nH]c(=O)[nH]c(=O)c2C12c1ccccc1-n1c2nc2ccccc2c1=O` (centres undefined), the IC50 in the data set on HT-29 is 23.7 µM; in data set [13] it was over 100 µM.
Turning to `N=c1c2c(ncn1N)Oc1c(c(=O)oc3ccccc13)C2c1cccc2ccccc12` (centres undefined), in [1], the CC50 was 4.84 mg/L (≈ 11.9 µM). Further, the selectivity ratio in data set [2] and in data set [4] was under 1 in each case. The EC50 in data set [3] and in data set [5] was 4.84 mg/L (≈ 11.9 µM) each time.
Regarding `Cc1nn(-c2ccccc2)c(Cl)c1C1c2[nH]c(=O)[nH]c(=O)c2Oc2c1c(=O)oc1ccccc21` (centres undefined), the deltaG in the data set listed under Capra hircus [14] is -43.6 kJ/mol. Also, the Activity is 59.1% in data set [15] and 54.3% in data set [17]. In addition, the inhibition in the data set listed under Capra hircus [16] worked out at 60%.
Regarding `N#CC1=C(N)Oc2[nH]c(=O)[nH]c(=O)c2C12c1cc(Br)ccc1-n1c2nc2ccccc2c1=O` (centres undefined), the IC50 was 14.2 µM in the data set with PANC-1 (read-out: IC50), over 100 µM in data set [13] and 10.9 µM with MDA-MB-231.
As for `COc1cc(/C=C/C(=O)C2=C(/C=C/c3ccc(O)c(OC)c3)Oc3[nH]c(=O)[nH]c(=O)c3C2c2c(Cl)cccc2Cl)ccc1O` (centres undefined), the IC50 in data set [12] worked out at 46.04 µM; at Alpha-glucosidase, 27.6 µM.
As to `CCOC(=O)C1=C(N)Oc2[nH]c(=O)[nH]c(=O)c2C1[C@H](O)[C@@H](O)[C@H](O[C@H]1O[C@H](CO)[C@@H](O)[C@H](O)[C@H]1O)[C@H](O)CO` (some centres undefined), the Activity in data set [18] came out at 5.24 µM.
